Experimental data as given in publication PMC9841532, “Exploring the Effect of Halogenation in a Series of Potent and Selective A2B Adenosine Receptor Antagonists” (Journal of Medicinal Chemistry, 2022).
Where two headings read alike, the source gives them in different places.

Key:
[1] = molecular target: T1, hA2AAR (Homo sapiens, UniProt P29274); assay: Radioligand binding competition, [3H]ZM241385, membranes from HeLa-A2A cells; settings: for % at 1 μM hA2A (percentage displacement of specific binding): [3H]ZM241385, human HeLa cells, n = 2
T1 construct: expressed in transfected cells; host or cells: HeLa (HeLa-A2A) cell membranes
T1 sequence (P29274 whole entry): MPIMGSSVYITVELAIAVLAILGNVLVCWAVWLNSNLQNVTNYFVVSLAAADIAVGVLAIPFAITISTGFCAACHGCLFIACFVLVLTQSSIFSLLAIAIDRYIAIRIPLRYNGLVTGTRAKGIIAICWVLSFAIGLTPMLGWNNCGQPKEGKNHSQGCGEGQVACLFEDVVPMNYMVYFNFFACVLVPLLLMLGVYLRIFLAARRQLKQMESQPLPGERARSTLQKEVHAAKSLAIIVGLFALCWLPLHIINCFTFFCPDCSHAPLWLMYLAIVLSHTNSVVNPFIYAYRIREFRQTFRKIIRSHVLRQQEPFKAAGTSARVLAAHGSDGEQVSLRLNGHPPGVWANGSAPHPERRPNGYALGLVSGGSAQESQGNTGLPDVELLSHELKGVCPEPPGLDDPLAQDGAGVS
Method in brief: (§1)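 Racemates, plus selected enantiomers after chiral resolution, were tested at 25 °C, with a 60 min incubation for one subtype and 30 min for others. Non-specific binding was defined with 10 μM or 100 μM R-PIA. Bound radioactivity was counted after washing and filtration.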

[2] = molecular target: T2, hA1AR (Homo sapiens, UniProt P30542); assay: Radioligand binding competition, [3H]DPCPX, membranes from CHO-A1 cells; settings: for % at 1 μM hA1 (percentage displacement of specific binding): [3H]DPCPX, human CHO cells, n = 2
T2 sequence (P30542 1-326): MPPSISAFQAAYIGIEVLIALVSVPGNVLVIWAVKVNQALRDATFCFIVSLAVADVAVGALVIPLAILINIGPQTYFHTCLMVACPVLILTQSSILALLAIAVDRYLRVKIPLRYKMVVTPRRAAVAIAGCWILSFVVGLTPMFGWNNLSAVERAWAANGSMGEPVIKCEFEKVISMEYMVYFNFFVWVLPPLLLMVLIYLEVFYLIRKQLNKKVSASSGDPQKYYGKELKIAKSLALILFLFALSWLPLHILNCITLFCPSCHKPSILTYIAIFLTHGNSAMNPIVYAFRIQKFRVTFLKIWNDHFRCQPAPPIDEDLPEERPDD
Method in brief: as §1

[3] = molecular target: T3, hA3AR (Homo sapiens, UniProt P0DMS8); assay: Radioligand binding competition, [3H]NECA, membranes from HeLa-A3 cells; settings: 1 μM, [3H]NECA, human HeLa cells, n = 2
T3 construct: expressed in transfected cells; host or cells: HeLa (HeLa-A3) cell membranes
T3 sequence (P0DMS8 1-318): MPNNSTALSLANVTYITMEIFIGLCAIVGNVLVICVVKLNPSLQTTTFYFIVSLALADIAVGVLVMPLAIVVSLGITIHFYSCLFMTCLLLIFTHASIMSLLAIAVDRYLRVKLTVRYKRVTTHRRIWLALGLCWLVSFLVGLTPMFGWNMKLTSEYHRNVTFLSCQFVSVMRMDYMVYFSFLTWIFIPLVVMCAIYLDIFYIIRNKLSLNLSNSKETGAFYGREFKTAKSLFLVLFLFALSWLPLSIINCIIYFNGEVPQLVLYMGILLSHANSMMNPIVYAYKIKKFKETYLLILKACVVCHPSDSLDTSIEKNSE
Method in brief: as §1

[4] = molecular target: T4, hA2BAR (Homo sapiens, UniProt P29275); assay: Radioligand binding competition, [3H]DPCPX, membranes from HEK-293-A2B cells; parameters: Exp. dG: unit not given here; settings: for Exp. dG: experimental binding free energy, Supplementary Table S3, unit not given (errors in kcal/mol); for % at 1 μM hA2B (percentage displacement of specific binding): [3H]DPCPX, human HEK-293 cells, n = 2
T4 construct: host or cells: HEK-293 (HEK-293-A2B) cell membranes
T4 sequence (P29275 1-332): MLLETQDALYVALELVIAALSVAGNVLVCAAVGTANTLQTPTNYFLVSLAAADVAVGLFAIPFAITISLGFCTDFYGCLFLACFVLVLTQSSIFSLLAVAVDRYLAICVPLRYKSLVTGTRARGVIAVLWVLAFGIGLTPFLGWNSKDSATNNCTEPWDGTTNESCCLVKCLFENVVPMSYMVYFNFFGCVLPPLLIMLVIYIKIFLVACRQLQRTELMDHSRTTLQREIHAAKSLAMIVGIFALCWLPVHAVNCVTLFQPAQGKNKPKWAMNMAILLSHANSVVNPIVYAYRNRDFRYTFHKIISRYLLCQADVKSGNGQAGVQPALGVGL
Method in brief: as §1

[5] = displacement of specific [3H]DPCPX binding in human HEK-293 cells, n = 3, read-out: Ki hA2B

| SMILES | % at 1 μM hA2A (percentage displacement of specific binding) [1] [%] | % at 1 μM hA1 (percentage displacement of specific binding) [2] [%] | % at 1 μM hA3 (percentage displacement of specific binding) [3] [%] | Ki [4, 5] [nM] | Exp. dG [4] | Ki ([4]; read-out: Ki hA2B) [nM] | % at 1 μM hA2B (percentage displacement of specific binding) [4] [%] | Ki ([1]; displacement of specific [3H]ZM241385 binding in human HeLa cells, n = 3, read-out: Ki hA2A) [nM] | Ki ([4]; supplementary CSV, no unit printed (nM in Tables 2-5), read-out: Ki_hA2B) [nM] | Ki ([2]; displacement of specific [3H]DPCPX binding in human CHO cells, n = 3, read-out: Ki hA1) [nM] |
| --- | --- | --- | --- | --- | --- | --- | --- | --- | --- | --- |
| CC1=C(C(=O)OC(C)C)C(c2ccsc2)n2c(nc3cc(F)ccc32)N1 (centres unmarked) [16h] | 1 | 2 | 5 | 75.5 ± 3.2 | -9.71 |  |  |  |  |  |
| CCOC(=O)C1=C(C)Nc2nc3cc(Cl)ccc3n2C1c1ccco1 (centres unmarked) [16i] | 10 | 23 | 4 | 8.42 ± 1.4 | -11.01 | < 10 |  |  |  |  |
| CCOC(=O)C1=C(C)Nc2nc3cc(Cl)ccc3n2C1c1ccoc1 (centres unmarked) [16k] | 43 | 31 | 4 | 7.21 ± 0.4 | -11.1 | < 10 |  |  |  |  |
| CCOC(=O)C1=C(C)Nc2nc3cc(Cl)ccc3n2C1c1cccs1 (centres unmarked) [16m] | 2 | 3 | 1 |  |  |  | 41 |  |  |  |
| CC1=C(C(=O)OC(C)C)C(c2cccs2)n2c(nc3cc(Cl)ccc32)N1 (centres unmarked) [16n] | 2 | 2 | 1 | 837 ± 11 | -8.286 |  |  |  |  |  |
| CCOC(=O)C1=C(C)Nc2nc3cc(Cl)ccc3n2C1c1ccsc1 (centres unmarked) [16o] | 7 | 2 | 8 | 911 ± 14 | -8.235 |  |  |  |  |  |
| CC1=C(C(=O)OC(C)C)C(c2ccsc2)n2c(nc3cc(Cl)ccc32)N1 (centres unmarked) [16p] | 7 | 7 | 4 | 165 ± 9 |  |  |  |  |  |  |
| CCOC(=O)C1=C(C)Nc2nc3cc(Br)ccc3n2C1c1ccco1 (centres unmarked) [16q] | 29 | 18 | 33 | 26.9 ± 0.8 |  |  |  |  |  |  |
| CC1=C(C(=O)OC(C)C)C(c2ccoc2)n2c(nc3cc(Br)ccc32)N1 (centres unmarked) [16t] |  | 2 | 2 | 8.2 ± 1.1 |  | < 10 |  | 509 ± 6 |  |  |
| CCOC(=O)C1=C(C)Nc2nc3cc(Br)ccc3n2C1c1cccs1 (centres unmarked) [16u] | 3 | 6 | 6 |  |  |  | 55 |  |  |  |
| CC1=C(C(=O)OC(C)C)C(c2cccs2)n2c(nc3cc(Br)ccc32)N1 (centres unmarked) [16v] | 1 | 1 | 1 | 115 ± 3 |  |  |  |  | 115 |  |
| CCOC(=O)C1=C(C)Nc2nc3cc(Br)ccc3n2C1c1ccsc1 (centres unmarked) [16w] | 9 | 1 | 1 | 537 ± 8 |  |  |  |  |  |  |
| CC1=C(C(=O)OC(C)C)C(c2ccsc2)n2c(nc3cc(Br)ccc32)N1 (centres unmarked) [16x] | 1 | 2 | 4 | 61.1 ± 1.8 |  |  |  |  |  |  |
| CCOC(=O)C1=C(C)Nc2nc3ccc(F)cc3n2C1c1cocn1 (centres unmarked) [17a] | 4 | 43 | 26 | 44.7 ± 1.4 | -10.02 |  |  |  |  |  |
| CC1=C(C(=O)OC(C)C)C(c2cocn2)n2c(nc3ccc(F)cc32)N1 (centres unmarked) [17b] | 19 | 34 | 22 | 7.6 ± 0.6 | -11.07 | < 10 |  |  |  |  |
| CCOC(=O)C1=C(C)Nc2nc3ccc(Cl)cc3n2C1c1cocn1 (centres unmarked) [17c] | 14 |  | 11 | 25.6 ± 1.2 | -10.35 |  |  |  |  | 227 |
| CC1=C(C(=O)OC(C)C)C(c2cocn2)n2c(nc3ccc(Cl)cc32)N1 (centres unmarked) [17d] | 1 | 27 | 20 | 102 ± 7 | -9.528 |  |  |  |  |  |
| CCOC(=O)C1=C(C)Nc2nc3cc(F)ccc3n2C1c1cocn1 (centres unmarked) [18a] | 16 | 25 | 16 | 14.7 ± 1.1 | -10.68 |  |  |  |  |  |
| CCOC(=O)C1=C(C)Nc2nc3cc(Cl)ccc3n2C1c1cocn1 (centres unmarked) [18c] | 13 | 30 | 15 | 8.6 ± 0.4 | -11 | < 10 |  |  |  |  |
| CC1=C(C(=O)OC(C)C)C(c2cocn2)n2c(nc3cc(Cl)ccc32)N1 (centres unmarked) [18d] | 35 | 23 | 23 | 6.4 ± 0.7 | -11.17 | < 10 |  |  |  |  |
| CC1=C(C(=O)OC(C)C)[C@H](c2ccco2)n2c(nc3cc(F)ccc32)N1 [(R)-16b] | 5 | 15 | 19 |  |  |  | 41 |  |  |  |
| CC1=C(C(=O)OC(C)C)[C@H](c2ccco2)n2c(nc3cc(Cl)ccc32)N1 [(R)-16j] | 37 | 7 | 5 |  |  |  | 51 |  |  |  |
